Source: patent publication US20190233522A1, “NEW DOSAGE REGIMENS FOR ANTIBODY DRUG CONJUGATES BASED ON ANTI-AXL ANTIBODIES” (GENMAB A/S, priority 2016, published 2019)

Key:
LXFA 526 = test: Erlotinib-resistant NSCLC PDX model LXFA 526; format: in vivo, NMRI nu/nu mice
Description: (§1) Inoculation of tumor fragments into 4-6 weeks old male NMRI nu/nu mice and randomization was performed as described above.
Erlotinib was given daily for 14 days at a dose of 50 mg/kg. Erlotinib alone, IgG1-b12-vcMMAE and IgG1-b12 were used as control.

LU2511 tumors = test: Erlotinib-resistant NSCLC PDX model LU2511; format: in vivo, BALB/c nude mice
Description: Tumor fragments from donor mice bearing patient-derived NSCLC xenografts (LU2511) were used for inoculation into BALB/c nude mice. Each mouse was inoculated subcutaneously at the right flank with one tumor fragment (2-3 mm in diameter) and tumors were allowed to grow until the tumor volume was about 200 mm^3. […] The antibodies and ADCs were dosed intravenously (i.v.) at 4 mg/kg on the day of randomization (day 0) and on day 7. Erlotinib was dosed orally (per os) at 50 mg/kg daily for 2 weeks. Tumor volumes (mm^3) were monitored twice weekly and were calculated from caliper (PLEXX) measurements as: 0.5×(length)×(width)^2.

LU1868 = test: Erlotinib-resistant NSCLC PDX model LU1868; format: in vivo, BALB/c nude mice
Description: (§2) Inoculation of tumor fragments into BALB/c nude mice and randomization was performed as described above.
Erlotinib was given daily for 14 days at a dose of 50 mg/kg. Treatments with erlotinib alone, IgG1-b12-vcMMAE or IgG1-b12 were included as controls (FIG. 27).

LXFA 677 = test: NSCLC PDX model LXFA 677; format: in vivo, NMRI nu/nu mice
Description: as §1
(§3) Erlotinib was given daily for 14 days at a dose of 50 mg/kg. Erlotinib alone, IgG1-b12-vcMMAE and IgG1-b12 were used as controls.

LU0858 = test: Erlotinib-resistant NSCLC PDX model LU0858; format: in vivo, BALB/c nude mice
Description: as §2, §3

LXFA 677_3 = test: NSCLC PDX model LXFA 677_3 (acquired resistance to erlotinib); format: in vivo, NMRI nu/nu mice
Description: as §1, §3

CV1664 = test: Cervical cancer PDX model CV1664; format: in vivo, BALB/c nude mice
Description: Inoculation of tumor fragments into BALB/c nude mice and randomization was performed as described in Example 23.

ES0195 tumors = test: Esophageal cancer PDX model ES0195; format: in vivo, BALB/c nude mice
Description: Tumor fragments from donor mice bearing patient-derived esophageal xenografts (ES0195) were used for inoculation into BALB/c nude mice. Each mouse was inoculated subcutaneously at the right flank with one tumor fragment (2-3 mm in diameter) and tumors were allowed to grow until the tumor volume was about 150 mm^3. […] The antibodies and ADCs were dosed intravenously (i.v.) at 4 mg/kg at day of randomization (day 0) and day 7. Paclitaxel was dosed intra-peritoneally (i.p.) at 20 mg/kg at day 0, 7, and 14. Tumor volumes (mm^3) were monitored twice weekly and were calculated from caliper (PLEXX) measurements as: 0.52×(length)×(width)^2.

A431 cells = test: Cytotoxicity assay (CellTiter-Glo) in A431 cells; format: cell-based; conditions: A431 (n = 3), 5 days incubation
Description: (§4) LCLC-103H cells (human large cell lung cancer) and A431 cells (DMSZ, Braunschweig, Germany) were cultured in RPMI 1640 with L-Glutamine (Cambrex; cat.no. BE12-115F) supplemented with 10% (vol/vol) heat inactivated Cosmic Calf Serum (Perbio; cat.no. SH30087.03), 2 mM L-glutamine (Cambrex; cat.no. US17-905C), 50 IU/mL penicillin, and 50 µg/mL streptomycin (Cambrex; cat.no. DE17-603E). MDA-MB231 cells were cultured in DMEM with high glucose and HEPES (Lonza #BE12-709F), Donor Bovine Serum with Iron (Life Technologies #10371-029), 2 mM L-glutamine (Lonza #BE17 -605E), 1 mM Sodium Pyruvate (Lonza #BE13-115E), and MEM Non-Essential Amino Acids Solution (Life Technologies #11140). The cell lines were maintained at 37° C. in a 5% (vol/vol) CO2 humidified incubator. LCLC-103H, A431 and MDA-MB231 cells were cultured to near confluency, after which cells were trypsinized, resuspended in culture medium and passed through a cell strainer (BD Falcon, cat.no. 352340) to obtain a single cell suspension. […]
(§5) Subsequently, 180 μL per well was transferred to white 96-well Optiplate™ plates (PerkinElmer, Waltham, Mass.; cat.no. 6005299), which were incubated for 30 min at room temperature. Finally, luminescence was measured on an EnVision multiplate reader (Envision, Perkin Elmer).

A431 tumors = test: A431 xenograft model (high Gas6); format: in vivo; conditions: 3 mg/kg i.p., SCID mice
Description: (§6) Tumor induction was performed by subcutaneous injection of 5×10^6 A431 or LCLC-103H tumor cells (both obtained from Leibniz-Institut—Deutsche Sammlung von Mikroorganismen and Zellkulturen GmbH (DSMZ)) in 200 μL PBS in the right flank of female SCID mice. Treatment was started 14-21 days after tumor cell inoculation, when the average tumor size was >100-200 mm^3 and distinct tumor growth was observed. Mice received a single injection or a total of 4 biweekly intraperitoneal injections with IgG1-AXL-vcMMAE ADCs or control antibody (unconjugated IgG1-b12), as indicated. Tumor volume was determined at least two times per week. Tumor volumes (mm^3) were calculated from caliper (PLEXX) measurements as: 0.52×(length)×(width)^2.

PAXF1657 tumors = test: PAXF1657 pancreas cancer PDX model; format: in vivo, NMRI nu/nu mice
Description: Human pancreas tumor tissue was subcutaneously implanted in the left flank of 5-7 weeks old female NMRI nu/nu mice. […] At day of randomization (day 0), the 3 ADCs were dosed intravenously (i.v.) at either 4 mg/kg or 2 mg/kg, and the control group received a single dose of IgG1-b12 (4 mg/kg). Tumor volumes (mm^3) were monitored twice weekly and were calculated from caliper (PLEXX) measurements as: 0.52×(length)×(width)^2.

LCLC-103H tumors = test: LCLC-103H xenograft model (low Gas6, Example 5); format: in vivo; conditions: 1 mg/kg i.p., SCID mice
Description: as §6

[1] = tested on: LCLC-103H xenograft tumors; test: Therapeutic treatment of SC LCLC-103H tumor xenografts (Example 3); format: in vivo, SCID mice
Description: The in vivo efficacy of MMAE-conjugated anti-AXL antibodies was determined in established subcutaneous (SC) LCLC-103H xenograft tumors in SCID mice. 5×10^6 LCLC-103H (large cell lung carcinoma) tumor cells (obtained from Leibniz-Institut DSMZ-Deutsche Sammlung von Mikroorganismen and Zellkulturen GmbH (DSMZ)) in 200 μL PBS were injected subcutaneously in the right flank of female SCID mice. Starting 14-21 days after tumor cell inoculation, when the average tumor size was >100-200 mm^3 and distinct tumor growth was observed, a single injection with 1 mg/kg (20 μg/mouse) IgG1-AXL-vcMMAE antibodies or control (unconjugated IgG1-b12) was given intraperitoneally (100 μL/mouse). Tumor volume was determined at least two times per week. Tumor volumes (mm^3) were calculated from caliper (PLEXX) measurements as: 0.52×(length)×(width)^2.

MDA-MB231 cells = test: Cytotoxicity assay (CellTiter-Glo) in MDA-MB231 cells; format: cell-based; conditions: MDA-MB231 (n = 2), 5 days incubation
Description: as §4, §5

LCLC-103H cells = test: Cytotoxicity assay (CellTiter-Glo) in LCLC-103H cells; format: cell-based, human; conditions: 5 days incubation
Description: as §4, §5

[2] = 2 doses of 4 mg/kg on days 55 and 62

Q: For C#Cc1cccc(Nc2ncnc3cc(OCCOC)c(OCCOC)cc23)c1 [erlotinib, reference compound], which “effect on tumor growth, LXFA 526” value (LXFA 526; 50 mg/kg daily for 14 days) is on record?
A: Its value is “no effect on tumor growth”.

Q: What about the “anti-tumor activity on LU2511 tumors” value (LU2511 tumors; 50 mg/kg per os daily for 2 weeks) of the same molecule?
A: Its value is “did not induce anti-tumor activity”.

Q: What about the “effect on tumor growth, LU1868” value (LU1868; 50 mg/kg daily for 14 days) of the same molecule?
A: Its value is “no effect on tumor growth”.

Q: What about the “effect on tumor growth, LXFA 677” value (LXFA 677; 50 mg/kg daily for 14 days) of the same molecule?
A: Its value is “induced partial tumor regression”.

Q: What about the “effect on tumor growth, LU0858” value (LU0858; 50 mg/kg daily for 14 days) of the same molecule?
A: The value was “no effect on tumor growth”.

Q: What about the “effect on tumor growth, LXFA 677_3” value (LXFA 677_3; 50 mg/kg daily for 14 days) of the same molecule?
A: The value was “no effect on tumor growth”.

Q: How did the “effect on tumor growth, CV1664” value (CV1664; 20 mg/kg intraperitoneally day 0 and 7) turn out when CC(=O)O[C@H]1C(=O)[C@@]2(C)[C@H]([C@H](OC(=O)c3ccccc3)[C@]3(O)C[C@H](OC(=O)[C@H](O)[C@@H](NC(=O)c4ccccc4)c4ccccc4)C(C)=C1C3(C)C)[C@]1(OC(C)=O)CO[C@@H]1C[C@@H]2O [paclitaxel, reference compound] was run?
A: The value was “induced partial tumor regression”.

Q: What about the “anti-tumor activity on ES0195 tumors” value (ES0195 tumors; 20 mg/kg i.p. day 0, 7 and 14) of the same molecule?
A: Its value is “tumor growth inhibition”.

Q: How did the “effect on tumor growth compared to IgG1-b12 control group, CV1664” value (CV1664; 4 mg/kg day 0 and 7) turn out when IgG1-AXL-107 was run?
A: The value was “only induced minor inhibition of tumor growth”.

Q: “IgG1-AXL-107-vcMMAE: anti-AXL antibody 107 (VH SEQ ID No 1, VL SEQ ID No 2) conjugated to MMAE via vc linker” was tested. Which “EC50 Mean” value (A431 cells) did it give?
A: Its value is 0.154 µg/mL.

Q: And the “effect on tumor growth, LXFA 526” value (LXFA 526; 2 mg/kg day 0 and 7)?
A: The value was “induced tumor growth inhibition”.

Q: And the “effect on tumor growth, LXFA 526” value (LXFA 526; 4 mg/kg day 0 and 7)?
A: The value was “complete tumor regression in all mice at least until day 76”.

Q: What about the “anti-tumor activity on LU2511 tumors” value (LU2511 tumors; 4 mg/kg i.v. day 0 and day 7) of the same molecule?
A: Its value is “induced tumor growth inhibition”.

Q: What about the “effect on tumor growth, LU1868” value (LU1868; 2 mg/kg and 4 mg/kg, day 0 and 7, alone) of the same molecule?
A: Its value is “induced tumor growth inhibition”.

Q: What about the “retreatment of three mice with tumor regrowth after paclitaxel, CV1664” value (CV1664; [2]) of the same molecule?
A: The value was “Two of the three mice showed complete tumor regression”.

Q: What about the “retreatment of two mice with tumor regrowth after initial 4 mg/kg ADC, CV1664” value (CV1664; [2]) of the same molecule?
A: Its value is “partial tumor regression in both mice”.

Q: What about the “second retreatment of the one mouse with regrowth after paclitaxel and ADC, CV1664” value (CV1664; 2 doses of 4 mg/kg on days 98 and 105) of the same molecule?
A: The value was “partial tumor regression”.

Q: And the “second retreatment of the same two mice, CV1664” value (CV1664; 2 doses of 4 mg/kg on days 105 and 112)?
A: The value was “partial tumor regression in both animals”.

Q: And the “effect on tumor growth, CV1664” value (CV1664; both dose levels (2 or 4 mg/kg), day 0 and 7, lasted at least until day 49)?
A: Its value is “induced strong tumor regression”.

Q: What about the “effect on tumor growth, LXFA 677” value (LXFA 677; 2 mg/kg day 0 and 7) of the same molecule?
A: Its value is “induced tumor growth inhibition”.

Q: What about the “effect on tumor growth, LXFA 677” value (LXFA 677; 4 mg/kg day 0 and 7) of the same molecule?
A: Its value is “induced partial tumor regression”.

Q: And the “anti-tumor activity on ES0195 tumors” value (ES0195 tumors; 4 mg/kg i.v. day 0 and day 7)?
A: The value was “induced tumor regression”.

Q: What about the “anti-tumor activity on A431 tumors” value (A431 tumors) of the same molecule?
A: The value was “induced growth inhibition”.

Q: And the “growth of PAXF1657 tumors compared to the control group” value (PAXF1657 tumors; 2 mg/kg i.v., day 0)?
A: The value was “significantly reduced the growth”.

Q: And the “anti-tumor activity on PAXF1657 tumors” value (PAXF1657 tumors; 4 mg/kg i.v., day 0)?
A: The value was “induced tumor regression”.

Q: And the “average tumor size versus isotype control IgG1-b12” value (PAXF1657 tumors; day 14, 2 mg/kg or 4 mg/kg, p<0.001 Tukey's multiple comparison test)?
A: The value was “significantly smaller”.

Q: What about the “anti-tumor activity on LCLC-103H tumors” value (LCLC-103H tumors) of the same molecule?
A: The value was “induced regression”.

Q: And the complete tumor reduction ([1]; 1 mg/kg single i.p.)?
A: The complete tumor reduction was “in some mice within these groups to complete tumor reduction”.

Q: What about the “tumor volume versus control IgG1-b12” value ([1]; day 30, One Way ANOVA (Dunnett's), 1 mg/kg single i.p.) of the same molecule?
A: Its value is “highly significant difference”.

Q: What about the “anti-tumor activity in established SC LCLC-103H tumors” value ([1]; single i.p. injection 1 mg/kg, SCID mice) of the same molecule?
A: The value was “induced tumor regression”.

Q: And the “EC50 Mean” value (MDA-MB231 cells)?
A: The value was 0.037 µg/mL.

Q: And the “effect on tumor growth, LU0858” value (LU0858; 2 mg/kg day 0 and 7, alone)?
A: Its value is “no effect on tumor growth”.

Q: What about the “effect on tumor growth, LU0858” value (LU0858; 4 mg/kg day 0 and 7, alone, compared to IgG1-b12-vcMMAE control) of the same molecule?
A: The value was “induced tumor growth inhibition”.

Q: And the “effect on tumor growth, LXFA 677_3” value (LXFA 677_3; both dose levels (2 and 4 mg/kg), day 0 and 7, lasted at least until day 41)?
A: Its value is “induced complete tumor regression”.

Q: What about the EC50 (LCLC-103H cells) of the same molecule?
A: Its EC50 is 0.022 µg/mL.
